Source: publication PMC6984391, “Anion carriers as potential treatments for cystic fibrosis: transport in cystic fibrosis cells, and additivity to channel-targeting drugs” (Chemical Science, 2019)
Entries after “also recorded” stand apart in the source; their conditions may differ.

Assays:
[1] = system: YFP-FRT cells; experiment: IncuCyte ZOOM live-cell viability (DRAQ7) in YFP-FRT cells; type: cell-based
Procedure: For cytotoxicity studies, we used YFP-CFBE and YFP-FRT cells. […]
To evaluate the viability of YFP -FRT cells, we used the IncuCyte ZOOM TM (Essen Bioscience (now Sartorius), Welwyn Garden City, UK) live-cell analysis system. YFP-FRT cells were seeded in 96-well plates at a density of 4000 cells well-1 and allowed to grow for 48 h at 37 °C in a humidified atmosphere of 5% CO2. Then, the YFP-FRT culture media was replaced with fresh culture media containing test anionophores or the vehicle (DMSO 0.5% v v-1) and deep red anthraquinone 7 (DRAQ7; Biostatus, Shepshed, UK) was added following the manufacturer’s instructions before the YFP-FRT cells were transferred to the IncuCyte ZOOMTM. At 2 h intervals over a 24 h period, 4 images of each well on 96-well plates were acquired; the phase contrast images were used to determine the total number of cells per well, while the fluorescence images to identify the number of dead cells with nuclei labelled red by DRAQ7. In each experiment, one data point is the average value from four wells. […]
To investigate further the cytotoxicity of anionophores 12, 15 and 19 we used YFP-FRT cells. As a control we tested compound 11. Using the IncuCyte ZOOMTM (Essen Bioscience) live-cell analysis system and the membrane impermeable far-red fluorescent DNA dye DRAQ7 to label the nuclei of dead cells, we examined the effects of the anionophores 11, 12, 15 and 19 on the viability of YFP -FRT cells over a 24 h period. Consistent with our previous results (Fig.
S23 and ref 10), compound 11 had little effect on cell viability. Only at the highest concentrations tested (30 and 50 µM) and at time points later than 12 h (50 µM) or 14 h (30 µM) did cytotoxicity become apparent ( P < 0.05 vs. DMSO 0.5% v v -1) (Fig. S24). By contrast, the same concentrations of compounds 12, 15 and 19 had cytotoxic effects from 2 h with […]
19 (10 µM) from 8 h onwards (P < 0.05 vs. DMSO 0.5% v v -1) (Fig. S24).

[2] = Affinity to Cl- by 1H NMR titration with Bu4N+Cl- in DMSO-d6/H2O (200:1); type: binding; conditions: 1H NMR titration with Bu4N^+Cl^– in DMSO-d6/H2O (200 : 1) at 298 K; new compound
Procedure: The binding constant to chloride was assessed using 1H NMR titrations with n-Bu4N+Cl- in DMSO-d6/H2O (200:1). The hygroscopic guest n-Bu4N+Cl- and the host compounds were dried under high vacuum to remove residual solvents or water prior to solution preparation. The concentration of the host was around 1 mM in all titrations; the concentration of guest and the volumes of the aliquots of guest solution added to the host solution were varied o ver the experiments. The guest solutions contained the same concentrations of host as the starting host solution (i.e., n-Bu4N+Cl- was dissolved in a solution of ~1 mM host in DMSO-d6/H2O (200:1)), […]
NMR titration binding studies were performed using a Varian 500b NMR spectrometer at 298
K. The shift of both NH signals in DMSO were fitted to 1:1 binding model using a least -squares fitting procedure in a custom -made Excel spreadsheet .
Figure S6. Downfield region of the 1H NMR spectra from the titration of tetrabutylammonium chloride into 12 […]
(§1) (1 picture or pasted object on this page, not shown here)

[3] = system: YFP-CFBE cells; experiment: XTT cell viability assay in YFP-CFBE cells; type: cell-based; conditions: for cytotoxicity in YFP-CFBE cells (XTT): 1–50 μM, 18 h at 37 °C; for IC50: XTT, 18 h treatment, fit of first order regression (Fig. S23), read-out: half-maximal inhibitory concentration (IC50), cell viability
Procedure: For cytotoxicity studies, we used YFP-CFBE and YFP-FRT cells. YFP-CFBE cells were seeded in 96-well plates at a density of 5 x 10^4 cells/well and cultured at 37 °C in a humidified atmosphere of 5% CO2. Thirty hours after seeding the cells, different concentrations of anionophores were added to the culture media and the cells were incubated with anionophores for 18 h. To assay cell viability, we used the XTT Cell Proliferation Assay Kit (ATCC) according to the manufacturer’s instructions. The specific absorbance of test samples was measured using a Microplate Spectrophotometer (SpectraMax 190, Molecular Devices, Sunnyvale, CA, USA). In each experiment, multiple replicates (12 – 25 wells from 3 – 5 plates) were tested for each concentration of anionophore. […]
To evaluate the cytotoxicity of anionophores 11, 12, 15 and 19, we treated YFP-CFBE cells with the anionophores (1 – 50 µM) in DMSO for 18 h at 37 °C before assessing cell viability using sodium 2,3, -bis(2-methoxy-4-nitro-5-sulfophenyl)-5-[(phenylamino)-carbonyl]-2H-tetrazolium) (XTT). Figure S23 summarises the resu lts. Although compounds […]
as §1

[4] = design: method as in ref [20], [23] (Reference column); conditions: extraction of Et4N^+Cl^– from water into chloroform at 303 K; ref [20], [23]; cited from earlier work
[5] = design: method as in ref [20], [21], [23], [24], [29] (Reference column); conditions: transporter preincorporated in LUVs (70% POPC + 30% cholesterol), 25 mM NaCl gradient, 225 mM NaNO3; ref [20], [21], [23], [24], [29]; cited from earlier work
[6] = design: method as in PMID 22461434, PMID 21846096, PMID 29786913; conditions: mol% carrier to lipid for 50% Cl^– efflux in 270 s; 490 mM NaCl inside, 490 mM NaNO3 outside; ref [22], [16 and 25]; cited from earlier work
[7] = 10 μM, 24 h period, P < 0.05 vs. DMSO
[8] = 30 μM, 24 h period, P < 0.05 vs. DMSO
[9] = 50 μM, 24 h period, P < 0.05 vs. DMSO

Row | SMILES | time points at which cytotoxicity is apparent ([1]; rat, 24 h, 30 µM) [h] | time points at which cytotoxicity is apparent ([1]; rat, 24 h, 50 µM) [h] | K a to Cl^– in DMSO [2] | cytotoxicity in YFP-CFBE cells (XTT) [3] | IC50 [3] [µM] | K a to Cl^– in CHCl3 [4] | Specific initial rate [I] [5] [s^–1] | time points at which cytotoxicity is apparent ([1]; 5 μM, 24 h period, P < 0.05 vs. DMSO) [h] | toxicity (IncuCyte ZOOM) ([1]; 10 μM) | time points at which cytotoxicity is apparent [1, 7] [h] | time points at which cytotoxicity is apparent [1, 8] [h] | time points at which cytotoxicity is apparent [1, 9] [h] | EC50, 270 s [6] [mol%]
1 | CCOC(=O)[C@]12CC[C@@H](NC(=S)Nc3ccc([N+](=O)[O-])cc3)C[C@@H]1C[C@@H](NC(=S)Nc1ccc([N+](=O)[O-])cc1)CC2 [Compound 12] | ≥ 2 | ≥ 2 | 1.7 × 10^3 M^–1 |  |  |  |  |  |  |  |  |  | 
2 | CCOC(=O)[C@]12CC[C@@H](NC(=S)Nc3cc(C(F)(F)F)cc(C(F)(F)F)c3)C[C@@H]1C[C@@H](NC(=S)Nc1cc(C(F)(F)F)cc(C(F)(F)F)c1)CC2 [Compound 15] |  |  |  | some cytotoxicity | > 50 | 4.7 × 10^8 M^–1 | 2600 | ≥ 2 | some cell death | ≥ 2 | ≥ 2 | ≥ 2 | 
3 | FC(F)(F)c1ccc(NC(=S)NCCN(CCNC(=S)Nc2ccc(C(F)(F)F)cc2)CCNC(=S)Nc2ccc(C(F)(F)F)cc2)cc1 [Compound 18] |  |  |  |  |  |  |  |  |  |  |  |  | 0.077
4 | FC(F)(F)c1cc(NC(=S)NCCN(CCNC(=S)Nc2cc(C(F)(F)F)cc(C(F)(F)F)c2)CCNC(=S)Nc2cc(C(F)(F)F)cc(C(F)(F)F)c2)cc(C(F)(F)F)c1 [Compound 19] |  |  |  | some cytotoxicity; also recorded: strongest effect | 38 |  |  |  | some cell death | ≥ 8 | ≥ 2 | ≥ 2 | 0.042
